Source: ChEMBL document CHEMBL3217667, “Extended side chain analogues of 8-aminoquinolines: Synthesis and evaluation of antiprotozoal, antimicrobial, -hematin inhibition, and cytotoxic activities” (Medchemcomm, 2011)
≈ marks a conversion by molar mass, not a printed value. Calls of active or inactive are those of the source. No cut-off for these calls is given here.

Key:
[1] = Selectivity index, ratio of IC50 for African green monkey Vero cells to IC50 for chloroquine-resistant Plasmodium falciparum W2; type: toxicity, cell-based; details: read-out: Ratio IC50
[2] = Selectivity index, ratio of IC50 for African green monkey Vero cells to IC50 for chloroquine-sensitive Plasmodium falciparum D6; type: toxicity, cell-based; details: read-out: Ratio IC50
Leishmania donovani = experiment: Antileishmanial activity against Leishmania donovani promastigotes by Alamar Blue assay; type: functional, organism-based
Plasmodium falciparum [3] = experiment: Antimalarial activity against chloroquine-sensitive Plasmodium falciparum D6 by lactate dehydrogenase assay; type: functional, organism-based
Staphylococcus aureus [4] = experiment: Antibacterial activity against methicillin-resistant Staphylococcus aureus; type: functional, organism-based
Pseudomonas aeruginosa = experiment: Antibacterial activity against Pseudomonas aeruginosa; type: functional, organism-based
Plasmodium berghei [5] = experiment: Antimalarial activity against Plasmodium berghei infected in mouse assessed as reduction in parasitemia at 50 mg/kg/day, po for 4 days measured up to day 60 relative to control; type: functional; parameters: scale not given: the % may be the effect or the level left
Plasmodium berghei [6] = experiment: Antimalarial activity against Plasmodium berghei infected in mouse assessed as reduction in parasitemia at 10 mg/kg/day, po for 4 days measured up to day 7; type: functional, organism-based
Aspergillus fumigatus = experiment: Antifungal activity against Aspergillus fumigatus by broth microdilution assay; type: functional, organism-based
Vero = experiment: Cytotoxicity against African green monkey Vero cells by neutral red uptake assay; type: cell-based; details: Chlorocebus sabaeus
SK-OV-3 = experiment: Cytotoxicity against human SKOV3 cells by neutral red uptake assay; type: cell-based
Plasmodium berghei [7] = experiment: Antimalarial activity against Plasmodium berghei infected in mouse assessed as reduction in parasitemia at 100 mg/kg/day, po for 4 days measured up to day 60 relative to control; type: functional; parameters: scale not given: the % may be the effect or the level left
Plasmodium falciparum [8] = experiment: Antimalarial activity against chloroquine-resistant Plasmodium falciparum W2 by lactate dehydrogenase assay; type: functional, organism-based
Candida albicans = experiment: Antifungal activity against Candida albicans by broth microdilution assay; type: functional, organism-based
LLC-PK1 = experiment: Cytotoxicity against pig LLC-PK1 cells by neutral red uptake assay; type: cell-based; details: Sus scrofa
Nakaseomyces glabratus = experiment: Antifungal activity against Candida glabrata by broth microdilution assay; type: functional, organism-based
Escherichia coli = experiment: Antibacterial activity against Escherichia coli; type: functional, organism-based
Pichia kudriavzevii = experiment: Antifungal activity against Candida krusei by broth microdilution assay; type: functional, organism-based
[9] = test system: Mycobacterium intracellulare; experiment: Antibacterial activity against Mycobacterium intracellulare; type: functional, organism-based
Plasmodium berghei [10] = experiment: Antimalarial activity against Plasmodium berghei infected in mouse assessed as reduction in parasitemia at 25 mg/kg/day, po for 4 days measured up to day 60 relative to control; type: functional; parameters: scale not given: the % may be the effect or the level left
SK-MEL = experiment: Cytotoxicity against human SK-MEL cells by neutral red uptake assay; type: cell-based
[11] = Inhibition of beta-hematin formation after 16 hrs; type: physicochemical
BT-549 = experiment: Cytotoxicity against human BT549 cells by neutral red uptake assay; type: cell-based
Plasmodium berghei [12] = experiment: Antimalarial activity against Plasmodium berghei infected in mouse assessed as reduction in parasitemia at 100 mg/kg/day, po for 4 days measured up to day 14; type: functional; parameters: scale not given: the % may be the effect or the level left
KB = experiment: Cytotoxicity against human KB cells by neutral red uptake assay; type: cell-based
Cryptococcus neoformans = experiment: Antifungal activity against Cryptococcus neoformans by broth microdilution assay; type: functional, organism-based
[13] = test system: Mycobacterium intracellulare; experiment: Antibacterial activity against Mycobacterium intracellulare up to 20 ug/ml; type: functional, organism-based
Staphylococcus aureus [14] = experiment: Antibacterial activity against Staphylococcus aureus; type: functional, organism-based
Staphylococcus aureus [15] = experiment: Antibacterial activity against methicillin-resistant Staphylococcus aureus up to 20 ug/ml; type: functional, organism-based
[16] = Plasmodium falciparum, D6, read-out: IC50
[17] = Plasmodium falciparum, W2, read-out: IC50

Row | Structure (SMILES) | selectivity ratio [1] | selectivity ratio [2] | IC90 (Leishmania donovani) | Activity (Pseudomonas aeruginosa) | Activity (Aspergillus fumigatus) | IC50 (Vero) | IC50 (SK-OV-3) | Activity (Candida albicans) | IC50 (LLC-PK1) | IC50 (Leishmania donovani) | Activity (Nakaseomyces glabratus) | Activity (Escherichia coli) | Activity (Pichia kudriavzevii) | IC50 [9] | IC50 (SK-MEL) | IC50 [11] | IC50 (BT-549) | Activity (Plasmodium berghei [12]) | IC50 (KB) | IC50 (Cryptococcus neoformans) | also measured
1 | C[C@@H]1CC[C@H]2[C@@H](C)C(=O)O[C@@H]3O[C@@]4(C)CC[C@@H]1[C@]32OO4 [ARTEMISININ] | 2640 | 1560 |  |  |  |  |  |  |  |  |  |  |  |  |  |  |  |  |  |  | 
2 | N=C(N)c1ccc(OCCCCCOc2ccc(C(=N)N)cc2)cc1 [PENTAMIDINE] |  |  | 3.8 µg/mL (≈ 11.2 µM) |  |  |  |  |  |  |  |  |  |  |  |  |  |  |  |  |  | 
3 | COc1cc(NC(C)CCCNC(C)CCCNC(C)CCCNC(C)CCCN)c2nc(C(C)(C)C)ccc2c1.Cl (configuration not stated) | > 42.5 | > 34 | 7.3 µg/mL | inactive | inactive | > 23.8 µg/mL | > 23.8 µg/mL | inactive | > 23.8 µg/mL | 1.6 µg/mL | inactive | inactive | inactive | 15 µg/mL | > 23.8 µg/mL | 10.2 µM | > 23.8 µg/mL | 100% | > 23.8 µg/mL | 10 µg/mL | IC50 (Plasmodium falciparum [3]; [16]): 0.7 µg/mL; IC50 (Staphylococcus aureus [4]): 10 µg/mL; MBC (Staphylococcus aureus [4]): 20 µg/mL; MIC (Staphylococcus aureus [4]): 20 µg/mL; Activity (Plasmodium berghei [5]): 100%; Activity (Plasmodium berghei [6]): Active; Activity (Plasmodium berghei [7]): 100%; IC50 (Plasmodium falciparum [8]; [17]): 0.56 µg/mL; MBC [9]: 20 µg/mL; MIC [9]: 20 µg/mL; Activity (Plasmodium berghei [10]): 100%; MFC (Cryptococcus neoformans): 20 µg/mL; MIC (Cryptococcus neoformans): 20 µg/mL
4 | CCCCCOc1c(OC)cc(NC(C)CCCNC(C)CCCN)c2nccc(CC)c12.Cl (configuration not stated) | > 132 | > 45.7 | 7 µg/mL | inactive | inactive | > 23.8 µg/mL | > 23.8 µg/mL | inactive | > 23.8 µg/mL | 3.7 µg/mL | inactive | inactive | inactive | > 20 µg/mL | > 23.8 µg/mL | 9.6 µM | > 23.8 µg/mL | inactive | > 23.8 µg/mL | 5.8 µg/mL | IC50 (Plasmodium falciparum [3]; [16]): 0.52 µg/mL; IC50 (Staphylococcus aureus [4]): 13.4 µg/mL; MBC (Staphylococcus aureus [4]): 20 µg/mL; MIC (Staphylococcus aureus [4]): 20 µg/mL; Activity [13]: inactive; IC50 (Plasmodium falciparum [8]; [17]): 0.18 µg/mL; IC50 (Staphylococcus aureus [14]): 13.6 µg/mL; MBC (Staphylococcus aureus [14]): 20 µg/mL; MIC (Staphylococcus aureus [14]): 20 µg/mL; MFC (Cryptococcus neoformans): 10 µg/mL; MIC (Cryptococcus neoformans): 10 µg/mL
5 | COc1cc(NC(C)CCCNC(C)CCCNC(C)CCCN)c2nc(C(C)(C)C)ccc2c1.Cl (configuration not stated) |  |  | 4 µg/mL | inactive | inactive | > 23.8 µg/mL | > 23.8 µg/mL | inactive | > 23.8 µg/mL | 1.6 µg/mL | inactive | inactive | inactive | 9 µg/mL | > 23.8 µg/mL | > 1000 µM | > 23.8 µg/mL | 100% | > 23.8 µg/mL | 7.5 µg/mL | IC50 (Plasmodium falciparum [3]): Not Active; Activity (Plasmodium berghei [5]): 100%; Activity (Plasmodium berghei [6]): Active; Activity (Plasmodium berghei [7]): 100%; IC50 (Plasmodium falciparum [8]): Not Active; Activity (Staphylococcus aureus [15]): inactive; MBC [9]: 20 µg/mL; MIC [9]: 20 µg/mL; Activity (Plasmodium berghei [10]): 100%; MFC (Cryptococcus neoformans): 20 µg/mL; MIC (Cryptococcus neoformans): 20 µg/mL
6 | CCN(CC)CCCC(C)Nc1ccnc2cc(Cl)ccc12 (configuration not stated) [CHLOROQUINE] |  |  |  |  |  |  |  |  |  |  |  |  |  |  |  | 80 µM |  |  |  |  | 
